Laboratory results reported in patent US20120321584A1, “PROCESSES FOR PREPARING AMINE SALTS OF KMUP-3 AND USE THEREOF” (KAOHSIUNG MEDICAL UNIVERSITY, priority 2011, published 2012).

Assays:
[1] = Hemodynamic measurements in anesthetized rats (LVSP, dP/dt, MABP, HR); assay type: in vivo, Wistar rats
Description: Hemodynamic measurements were carried out in male Wistar rats weighting 300˜350 g, anesthetized with pentobarbital sodium (40 mg kg^−1, i.p.). In brief, polyethylene tubing (PE50) was placed in the trachea to keep the airway patent, and rats continued to breathe spontaneously. Subsequently, rats were used to record hemodynamic and cardiovascular function. Vascular catheters (PE50) were placed in the femoral arteries to measure mean arterial blood pressure (MABP) and heart rate (HR). Changes of MABP and HR caused by KMUP-3 or KMUP-3 amine salt were recorded from the femoral artery with a pressure transducer (Gould, Model P50, U.S.A.), connected with a Pressure Processor Amplifier (Gould, Model 13-4615-52, U.S.A.). A femoral vein was used for intravenous administration of KMUP-3 or KMUP-3 amine salt. A specialized transducer tip catheter was placed in the right carotid artery and advanced into the left ventricle of the heart for measurement of left ventricular pressure (LVSP) or contractility; dP/dt at 50 mm Hg, an index of cardiac contractility, was derived from the left ventricular pressure trace; post-hoc vascular resistance was calculated as mean arterial blood pressure/peripheral cardiac output (MABP/PCO). Body temperature was monitored throughout the experiment and maintained between 37 and 37.5° C. by using a heating pad.
Each dose of active drugs was administered as a 20-min infusion in a series of escalating doses dissolved in a 5% dextrose water vehicle. […] KMUP-3 HCl or KMUP-3 amine salt were infused at 0.03, 0.05, and 0.075 μg/kg/20 min for the measurement of FABP, intraperitoneally injected at 0.03, 0.05 and 0.1 mg/kg for the measurement of MABP and HR and infused by intravenous injection for 2 min at 0.5, 1.0, 3.0 mg/kg dissolved in 5% dextrose water vehicle (2 ml) for the measurement of LV systolic pressure (LVSH), ABP, dP/dt, and HR. The primary hemodynamic variables were computed using commercial software and a signal processing workstation. Animals were randomly divided into one of six treatment or vehicle groups. After the completion of the surgical protocol, animals were allowed to stabilize for 1 h, and baseline data were collected at 5-min intervals for 30 min before the treatment.

[2] = tested on: RhoA; experiment: RhoA expression in electrically-stimulated left atria, Western blotting; assay type: cell-based, guinea-pig; conditions: KMUP-3 0.1-10 μM
Description: (§1) Protein extraction and Western blotting analysis. Briefly, after incubation with test agents in an organ bath, isolated beating atrium was frozen and pulverized to a fine powder at the temperature of liquid nitrogen. Atrium powders were then homogenized in protein extraction reagent (Pierce Biotechnology, Inc., Rockford, Ill.) by sonication. The samples were sonicated 10 sec three times and centrifuged at 13,000 rpm at 4° C. for 30 min. The protein concentrations of supernatants were determined by using bovine serum albumin as the standard. The cell extracts were then boiled in a ratio of 4:1 with sample buffer (Tris 100 mM, pH 6.8; glycerol 20%, Sodium dodecyl sulfate (SDS) 4% and bromophenol blue 0.2%). Electrophoresis was performed using 10% SDS-PAGE and transferred to nitrocellulose membranes (Millipore Corp., Billerica, Mass.). […] The intensity of the bands was measured by densitometry. eNOS or phosphorylated eNOS were extracted from cell culture of neonatal myocytes, PA ring and aortic ring (2-3 mm) of rats and measured by Western blotting analysis.
(§2) PK, ROCKII and CIP-17 expression and pretreatment of beating left atrium. To examine whether KMUP-3 or KMUP-3 amine salt affects the protein expression in beating atrium, PKA, ROCKII, PKG and phosphorylated CIP-17 was determined by Western blotting, respectively. […]

[3] = tested on: PKA; experiment: PKA expression in electrically-stimulated left atria, Western blotting; assay type: cell-based, guinea-pig
Description: Protein extraction and Western blotting analysis. Briefly, after incubation with test agents in an organ bath, isolated beating atrium was frozen and pulverized to a fine powder at the temperature of liquid nitrogen. Atrium powders were then homogenized in protein extraction reagent (Pierce Biotechnology, Inc., Rockford, Ill.) by sonication. The samples were sonicated 10 sec three times and centrifuged at 13,000 rpm at 4° C. for 30 min. The protein concentrations of supernatants were determined by using bovine serum albumin as the standard. The cell extracts were then boiled in a ratio of 4:1 with sample buffer (Tris 100 mM, pH 6.8; glycerol 20%, Sodium dodecyl sulfate (SDS) 4% and bromophenol blue 0.2%). Electrophoresis was performed using 10% SDS-PAGE and transferred to nitrocellulose membranes (Millipore Corp., Billerica, Mass.). The membrane was blocked with Tris-buffered saline (TBS; 20 mM Tris and 137 mM NaCl, pH 7.6) containing 0.1% Tween 20 (TTBS) and 5% nonfat milk at room temperature for 1 h, washed with TTBS, and then incubated overnight at 4° C. in the appropriate primary antibody for PKARI, RhoA, ROCKII, p-CIP-17, CPI-17 and PKG1α1β. The membranes were washed in TTBS before being incubated with horseradish peroxidase-conjugated antibody against mouse, goat, or rabbit IgG for 1 hr. Membranes were then washed in TTBS and developed with the enhanced chemiluminescence for the detection of the specific antigen. The intensity of the bands was measured by densitometry. eNOS or phosphorylated eNOS were extracted from cell culture of neonatal myocytes, PA ring and aortic ring (2-3 mm) of rats and measured by Western blotting analysis.
as §2

[4] = tested on: phosphorylated eNOS (p-eNOS); experiment: Phosphorylated eNOS expression in neonatal myocytes, Western blotting; assay type: cell-based, rat; conditions: neonatal rat cardiomyocytes
Description: (§3) eNOS/p-NOS and cAMP/cGMP in neonatal myocytes. To determine the role of the NO/cGMP-pathway in heart, neonatal rat myocyte protein was extracted followed by Western blotting to measure the expression of eNOS, phosphorylated eNOS (p-eNOS), cAMP, and cGMP (FIG. 14 A-14 B and FIG. 15 A-15 B). KMUP-3 increased eNOS and p-eNOS in neonatal rat cardiomyocytes and the effect was reduced by L-NAME (100 μM)-pretreatment (FIG. 14A and FIG. 14B). KMUP-3 increased both cAMP and cGMP.
as §1, with “standard.” for “standard. The cell extracts were then boiled in a ratio of 4:1 with sample buffer (Tris 100 mM, pH 6.8; glycerol 20%, Sodium dodecyl sulfate (SDS) 4% and bromophenol blue 0.2%). Electrophoresis was performed using 10% SDS-PAGE and transferred to nitrocellulose membranes (Millipore Corp., Billerica, Mass.).”

[5] = tested on: cAMP; experiment: cAMP in neonatal myocytes; assay type: cell-based, rat
Description: as §3

[6] = tested on: ROCKII; experiment: ROCKII expression in aorta and pulmonary artery rings, Western blotting; assay type: cell-based, rat; conditions: aorta and pulmonary artery (PA) ring
Description: (§4) ROCKII expression and vascular resistance. To determine whether KMUP-3's ROCKII activity increased vascular resistance, aorta and pulmonary artery (PA) ring protein was extracted followed by Western blotting to measure the expression ROCKII and eNOS.
as §1

[7] = tested on: eNOS; experiment: eNOS expression in aorta and pulmonary artery rings, Western blotting; assay type: cell-based, rat; conditions: aorta and pulmonary artery (PA) ring
Description: as §4, §1

[8] = anesthetized rats, intravenous injection 0.5-3 mg/kg within 2 min
[9] = intra-peritoneal injection 0.03-0.1 mg/kg
[10] = intravenous perfusion 0.03-0.075 μg/kg/min×20 min

Cn1c(=O)c2c(ncn2CCN2CCN(c3ccc([N+](=O)[O-])cc3)CC2)n(C)c1=O [KMUP-3, 7-[2-[4-(4-nitrobenzene)piperazinyl]ethyl]-1,3-dimethylxanthine]
LVSP (left ventricular systolic pressure) [1, 8]: dose-dependently increased | MABP (mean arterial blood pressure) [1, 8]: dose-dependently increased | dP/dt [1, 8]: dose-dependently increased | HR [1, 9]: dose-dependently increased | MABP [1, 9]: dose-dependently increased | HR [1, 10]: dose-dependently increased | MABP [1, 10]: dose-dependently increased | RhoA expression [2]: significantly increased | PKA expression ([3]; FIG. 13B, concentration not given): significantly increased | PKA expression ([3]; KMUP-3 0.1-10 μM): significantly increased | p-eNOS expression [4]: increased | cAMP [5]: increased | Vascular ROCKII expression [6]: did not increase | Vascular eNOS expression [7]: did increase
